Changes are numbered by the printed parent chain.
Key:
Am2136 R592A [1] = biological target: T1, Am2136 R592A (Akkermansia muciniphila, UniProt B2UPR7, R592A); assay: GDP regulated enzyme activity assay, mutant; conditions: 1 mM GDP, substrate pNP-β-GlcNAc
T1 sequence (B2UPR7 20-756 R592A): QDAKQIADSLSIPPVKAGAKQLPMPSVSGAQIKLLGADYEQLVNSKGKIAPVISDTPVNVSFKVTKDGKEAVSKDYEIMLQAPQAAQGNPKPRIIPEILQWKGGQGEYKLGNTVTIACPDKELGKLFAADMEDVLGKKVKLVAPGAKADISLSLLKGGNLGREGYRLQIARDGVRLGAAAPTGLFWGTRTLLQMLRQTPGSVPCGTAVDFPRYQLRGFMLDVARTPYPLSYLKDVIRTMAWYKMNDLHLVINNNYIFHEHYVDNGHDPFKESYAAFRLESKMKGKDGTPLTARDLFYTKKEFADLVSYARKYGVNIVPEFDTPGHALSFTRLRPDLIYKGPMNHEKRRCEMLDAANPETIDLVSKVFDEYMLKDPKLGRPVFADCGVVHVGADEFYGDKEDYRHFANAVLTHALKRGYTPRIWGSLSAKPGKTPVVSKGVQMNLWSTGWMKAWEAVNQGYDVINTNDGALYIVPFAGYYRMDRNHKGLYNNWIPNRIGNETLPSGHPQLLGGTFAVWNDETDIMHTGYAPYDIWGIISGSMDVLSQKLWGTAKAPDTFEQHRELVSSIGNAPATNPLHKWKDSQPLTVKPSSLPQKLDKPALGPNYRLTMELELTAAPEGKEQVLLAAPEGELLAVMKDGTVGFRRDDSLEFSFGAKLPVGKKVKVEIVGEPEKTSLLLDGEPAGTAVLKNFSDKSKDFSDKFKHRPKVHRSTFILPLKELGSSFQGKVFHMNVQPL

Am2136 P595A+H597A = biological target: T2, Am2136 P595A+H597A (Akkermansia muciniphila, UniProt B2UPR7, H597A/P595A); assay: GDP regulated enzyme activity assay, mutant; conditions: 1 mM GDP
T2 sequence (B2UPR7 20-756 P595A/H597A): T1 sequence (B2UPR7 20-756 R592A) with A573R, P576A, H578A

Am2136 R592A [2] = biological target: T1, Am2136 R592A; assay: Nucleotide binding affinity by intrinsic fluorescence, mutant; parameters: The coding region (residue Q20-L756) of Am2136 without signal peptide was based on UniProt; 6XHis (N); made in house; host or cells: E. coli BL21 (DE3)
Method: (§1) The nucleotide binding ability was determined on Fluorescence Spectrometer Duetta (HORIBA) by measuring the change of peak intensity. The fluorescence was excited at 286 nm and emitted at 336 nm. And the measurement was processed under 400 V voltage with 2.5 nm excitation slit and 5 nm emission slit. The 120 μL reaction mixture contains 0–550 μM nucleotide, 5 μM proteins, 25 mM Tris pH 8.0 and 150 mM NaCl. The sample was incubated at 4°C for 5 min before testing.

Am2136 Y550A = biological target: T3, Am2136 Y550A (Akkermansia muciniphila, UniProt B2UPR7, Y550A); assay: as above; parameters: The coding region (residue Q20-L756) of Am2136 without signal peptide was based on UniProt; 6XHis (N); made in house; host or cells: E. coli BL21 (DE3)
T3 sequence (B2UPR7 20-756 Y550A): T1 sequence (B2UPR7 20-756 R592A) with Y531A, A573R
Method: as §1

Q: Which Vmax (Am2136 R592A [1]) does the source give for `Nc1nc2c(ncn2[C@@H]2O[C@H](COP(=O)(O)OP(=O)(O)O)[C@@H](O)[C@H]2O)c(=O)[nH]1` [GDP] here?
A: The Vmax was 442 ± 5 µmol/min.

Q: What about the Vmax (Am2136 P595A+H597A; P595A+H597A, substrate pNP-β-GlcNAc) of the same molecule?
A: Its Vmax is 447 ± 4 µmol/min.

Q: And the “increase of kcat/Km with versus without GDP” value (Am2136 P595A+H597A; P595A/H597A)?
A: The value was “roughly two-fold increase”.

Q: What about the Kd (Am2136 R592A [2]) of the same molecule?
A: The Kd was 120 ± 5.82 µM.

Q: And the Kd (Am2136 Y550A)?
A: The Kd was 193 ± 7.36 µM.
